In patent US20090130017A1, “Targeted short-lived drug delivery” (Searete LLC, priority 2007, published 2009):
Where two headings read alike, the source gives them in different places.

Tests used:
[1] = in vivo; cited from earlier work
[2] = cited from earlier work
[3] = estimated blood plasma concentration of oxaliplatin in systemic therapy for colon cancer; type: in vivo, human; settings: 85 mg per meter-squared, 145 mg total dose, 65 kg person, 5 liters of blood, assuming even distribution and constant rate of elimination
[4] = rat, in vivo; cited from earlier work
[5] = cited from earlier work; remark: listed apart in the source
[6] = IV infusion of 20 mcg/kg over 24 hours

In the case of `Nc1ncnc2c1ncn2[C@@H]1O[C@H](CO)[C@@H](O)[C@H]1O` [Adenosine, adenosine], the “half-life (in words)” value [1] is given as “a few seconds”.

In the case of `O=C(O)CCCc1ccc(N(CCCl)CCCl)cc1` [Chlorambucil, chlorambucil], the half-life ([2]; in human) is given as “about 1.5 hours”.

For `CC[C@H]1OC(=O)[C@H](C)[C@@H](O[C@H]2C[C@@](C)(OC)[C@@H](O)[C@H](C)O2)[C@H](C)[C@@H](O[C@@H]2O[C@H](C)C[C@H](N(C)C)[C@H]2O)[C@](C)(O)C[C@@H](C)C(=O)[C@H](C)[C@@H](O)[C@]1(C)O` [Erythromycin, erythromycin], the half-life [1] is given as “approximately 1.5 hours”.

In the case of `N.N.O=C([O-])C1(C(=O)[O-])CCC1.[Pt+2]` [carboplatin], the half-life [1] is listed as 60 to 120 min.

In the case of `COc1cc([C@@H]2c3cc4c(cc3[C@@H](O[C@@H]3O[C@@H]5CO[C@@H](C)O[C@H]5[C@H](O)[C@H]3O)[C@H]3COC(=O)[C@H]23)OCO4)cc(OC)c1O` [etoposide], the half-life ([2]; in children) is listed as “about 3 hours”.

For `O=C1[O][Pt]2([NH][C@@H]3CCCC[C@H]3[NH]2)[O]C1=O` [oxaliplatin], the blood plasma concentration [3] is listed as “approximately 3 micrograms per milliliter” and the half-life [1] is listed as 10 to 25 min.

In the case of `COc1ccc(C(CN(C)C)C2(O)CCCCC2)cc1` (centres unmarked) [venlafaxine], the half-life [1] is given as “about 5 hours”.

In the case of NGF: nerve growth factor, the serum half-life [4] is given as “about 7.2 minutes”.

For heparin, the half-life [1] is listed as “around 1.5 hours”.

For streptokinase, the half-life [1] is listed as “about 20 minutes”.

In the case of tissue plasminogen activator [TPA], the circulation half-life [1] is given as “approximately 5 minutes”.

B1: NEUPOGEN® (Filgrastim): colony stimulating factor product, normally used systemically (protein, chains of the INN, looked up)
chain: MTPLGPASSLPQSFLLKCLEQVRKIQGDGAALQEKLCATYKLCHPEELVLLGHSLGIPWAPLSSCPSQALQLAGCLSQLHSGLFLYQGLLQALEGISPELGPTLDTLQLDVADFATTIWQQMEELGMAPALQPTQGAMPAFASAFQRRAGGVLVASHLQSFLEVSYRVLRHLAQP
For B1, the half-life [1] is given as “about 3.5 hours”, the mean serum concentration [5, 6] is given as “approximately 48 ng/mL” and the median serum concentration [5, 6] is given as ~56 ng/mL. The maximum serum concentration ([5]; subcutaneous administration of 3.45 mcg/kg) was 4 ng/mL and the maximum serum concentration ([5]; subcutaneous administration of 11.5 mcg/kg) was 49 ng/mL.
